Assay results reported in patent publication EP4273147A1, “SUBSTITUTED SPIROLACTAMS, SALTS THEREOF AND THEIR USE AS HERBICIDALLY ACTIVE SUBSTANCES” (Bayer Aktiengesellschaft, priority 2022, dated 2023).
Blank lines part the entries; values can stand above or below the compound they belong to.

Experiments:
[1] = test system: ABUTH; assay: Herbicidal pre-emergence action (Table A1); assay type: in vivo, Abutilon theophrasti; conditions: application rate 1280 g/ha; visual grading after ca. 3 weeks vs untreated controls (100% = plants have died off, 0% = as control plants)
Summary of the method: (§1)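 Sandy loam filled the pots; weed seeds went in as paired sowings of one grass-type and one broadleaf species, then were covered with soil.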

[2] = test system: ECHCG; assay: Herbicidal pre-emergence action (Table A2); assay type: in vivo, Echinochloa crus-galli; conditions: visual grading after ca. 3 weeks
Summary of the method: as §1

[3] = test system: LOLRI; assay: Herbicidal pre-emergence action (Table A3); assay type: in vivo, Lolium rigidum; conditions: application rate 320 g/ha; visual grading after ca. 3 weeks
Summary of the method: as §1

[4] = test system: MATIN; assay: Herbicidal pre-emergence action (Table A4); assay type: in vivo, Matricaria inodora; conditions: application rate 1280 g/ha; visual grading after ca. 3 weeks
Summary of the method: as §1

[5] = test system: SETVI; assay: Herbicidal pre-emergence action (Table A5); assay type: in vivo, Setaria viridis; conditions: application rate 320 g/ha; visual grading after ca. 3 weeks
Summary of the method: as §1

[6] = test system: STEME; assay: Herbicidal pre-emergence action (Table A6); assay type: in vivo, Stellaria media; conditions: application rate 320 g/ha; visual grading after ca. 3 weeks
Summary of the method: as §1

[7] = test system: POAAN; assay: Herbicidal pre-emergence action (Table A7); assay type: in vivo, Poa annua; conditions: application rate 320 g/ha; visual grading after ca. 3 weeks
Summary of the method: as §1

[8] = test system: AMARE; assay: Herbicidal pre-emergence action (Table A8); assay type: in vivo, Amaranthus retroflexus; conditions: application rate 1280 g/ha; visual grading after ca. 3 weeks vs untreated controls (100% = plants have died off, 0% = as control plants)
Summary of the method: as §1

[9] = test system: ALOMY; assay: Herbicidal pre-emergence action (Table A9); assay type: in vivo, Alopecurus myosuroides; conditions: application rate 1280 g/ha; visual grading after ca. 3 weeks
Summary of the method: as §1

[10] = test system: KCHSC; assay: Herbicidal pre-emergence action (Table A10); assay type: in vivo, Kochia scoparia; conditions: application rate 320 g/ha; visual grading after ca. 3 weeks
Summary of the method: as §1

[11] = test system: VERPE; assay: Herbicidal pre-emergence action (Table A11); assay type: in vivo, Veronica persica; conditions: application rate 1280 g/ha; visual grading after ca. 3 weeks
Summary of the method: as §1

[12] = test system: DIGSA; assay: Herbicidal pre-emergence action (Table A12); assay type: in vivo, Digitaria sanguinalis; conditions: visual grading after ca. 3 weeks
Summary of the method: as §1

[13] = test system: ECHCG; assay: Herbicidal post-emergence action (Table B3); assay type: in vivo, Echinochloa crus-galli; conditions: application rate 1280 g/ha; rated visually after about 3 weeks
Summary of the method: (§2)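 Sow weeds in sandy loam pots, one species each; grow in greenhouse 2–3 weeks to one-leaf stage; treat; hold ~3 weeks under optimum conditions; rate damage visually vs untreated (0–100%).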

[14] = test system: SETVI; assay: Herbicidal post-emergence action (Table B8); assay type: in vivo, Setaria viridis; conditions: application rate 1280 g/ha
Summary of the method: as §2

[15] = test system: DIGSA; assay: Herbicidal post-emergence action (Table B12); assay type: in vivo, Digitaria sanguinalis; conditions: application rate 1280 g/ha
Method: Seeds of mono- and dicotyledonous weed plants were placed in plastic pots in sandy loam soil (doubly sown with in each case one species of mono- or dicotyledonous weed plants per pot), covered with soil and cultivated in a greenhouse under controlled growth conditions. 2 to 3 weeks after sowing, the test plants were treated at the one-leaf stage. […] After the test plants had been kept in the greenhouse under optimum growth conditions for about 3 weeks, the activity of the preparations was rated visually in comparison to untreated controls. For example, 100% activity = the plants have died, 0% activity = like control plants.

[16] = test system: ABUTH; assay: Herbicidal pre-emergence action, section C (Table C1); assay type: in vivo, Abutilon theophrasti; conditions: application rate 320 g/ha; visual grading after ca. 3 weeks
[17] = test system: ALOMY; assay: Herbicidal pre-emergence action, section C (Table C2); assay type: in vivo, Alopecurus myosuroides; conditions: application rate 320 g/ha; visual grading after ca. 3 weeks
[18] = test system: DIGSA; assay: Herbicidal pre-emergence action, section C (Table C5); assay type: in vivo, Digitaria sanguinalis; conditions: visual grading after ca. 3 weeks
[19] = test system: ECHCG; assay: Herbicidal pre-emergence action, section C (Table C6); assay type: in vivo, Echinochloa crus-galli; conditions: application rate 80 g/ha; visual grading after ca. 3 weeks
From the text: (§4) Seeds of mono- and dicotyledonous weed plants and crop plants were sown, in plastic or organic planting pots, in sandy loam and covered with soil. The compounds according to the invention, formulated in the form of wettable powders (WP) or as emulsifiable concentrates (EC), were applied to the surface of the covering soil as aqueous suspension or emulsion, with the addition of 0.5% of an additive, at an application rate of 600 1 of water/ha (converted). Following treatment, the pots were placed in a greenhouse and kept under optimum growth conditions for the test plants.

[20] = test system: LOLRI; assay: Herbicidal pre-emergence action, section C (Table C7); assay type: in vivo, Lolium rigidum; conditions: application rate 320 g/ha; visual grading after ca. 3 weeks
[21] = test system: MATIN; assay: Herbicidal pre-emergence action, section C (Table C8); assay type: in vivo, Matricaria inodora; conditions: application rate 320 g/ha; visual grading after ca. 3 weeks
[22] = test system: SETVI; assay: Herbicidal pre-emergence action, section C (Table C10); assay type: in vivo, Setaria viridis; conditions: application rate 320 g/ha; visual grading after ca. 3 weeks
[23] = test system: VERPE; assay: Herbicidal pre-emergence action, section C (Table C11); assay type: in vivo, Veronica persica; conditions: visual grading after ca. 3 weeks
[24] = test system: VIOTR; assay: Herbicidal pre-emergence action, section C (Table C12); assay type: in vivo, Viola tricolor; conditions: application rate 80 g/ha; visual grading after ca. 3 weeks
[25] = test system: ZEAMX; assay: Pre-emergence effects on crop plants (Table D1); assay type: in vivo, Zea mays; conditions: crop plant, visual grading after ca. 3 weeks
[26] = test system: ABUTH; assay: Herbicidal post-emergence action, section E (Table E1); assay type: in vivo, Abutilon theophrasti; conditions: application rate 320 g/ha; assessed visually after ca. 3 weeks
From the text: (§3) 2 to 3 weeks after sowing, the test plants were sprayed in the single-leaf stage.

[27] = test system: VIOTR; assay: Herbicidal post-emergence action, section E (Table E10); assay type: in vivo, Viola tricolor; conditions: application rate 320 g/ha; assessed visually after ca. 3 weeks
From the text: as §3

[28] = test system: ZEAMX; assay: Post-emergence effects on crop plants (Table F1); assay type: in vivo, Zea mays; conditions: application rate 320 g/ha, crop plant ZEAMX
From the text: as §3

[29] = test system: TRZAS; assay: Post-emergence effects on crop plants (Table F2); assay type: in vivo, Triticum aestivum; conditions: application rate 320 g/ha, crop plant TRZAS
From the text: as §3

[30] = test system: ORYZA; assay: Post-emergence effects on crop plants (Table F3); assay type: in vivo, Oryza sativa; conditions: application rate 320 g/ha, crop plant ORYZA
From the text: as §3

[31] = test system: ORYZA; assay: Pre-emergence effects on crop plants (Table D3); conditions: crop plant; application rate 80 g/ha; visual grading after ca. 3 weeks
[32] = test system: ABUTH; assay: Herbicidal post-emergence action (Table B1); assay type: in vivo, Abutilon theophrasti; conditions: application rate 1280 g/ha; treated at one-leaf stage; rated visually after about 3 weeks vs untreated controls (100% = plants have died, 0% = like control plants)
Summary of the method: as §2

[33] = test system: LOLRI; assay: Herbicidal post-emergence action (Table B5); assay type: in vivo, Lolium rigidum; conditions: application rate 1280 g/ha; rated visually after about 3 weeks
Summary of the method: as §2

[34] = test system: MATIN; assay: Herbicidal post-emergence action (Table B6); assay type: in vivo, Matricaria inodora; conditions: application rate 1280 g/ha; rated visually after about 3 weeks
Summary of the method: as §2

[35] = test system: POAAN; assay: Herbicidal post-emergence action (Table B7); assay type: in vivo, Poa annua; conditions: application rate 1280 g/ha
Summary of the method: as §2

[36] = test system: VERPE; assay: Herbicidal post-emergence action (Table B10); assay type: in vivo, Veronica persica; conditions: application rate 1280 g/ha
Summary of the method: as §2

[37] = test system: POLCO; assay: Herbicidal pre-emergence action, section C (Table C9); assay type: in vivo, Polygonum convolvulus; conditions: application rate 320 g/ha; visual grading after ca. 3 weeks
From the text: as §4

[38] = test system: TRZAS; assay: Pre-emergence effects on crop plants (Table D2); assay type: in vivo, Triticum aestivum; conditions: crop plant; application rate 320 g/ha; visual grading after ca. 3 weeks
[39] = test system: ECHCG; assay: Herbicidal post-emergence action, section E (Table E5); assay type: in vivo, Echinochloa crus-galli; conditions: application rate 320 g/ha; assessed visually after ca. 3 weeks
From the text: as §3

[40] = test system: VERPE; assay: Herbicidal post-emergence action, section E (Table E9); assay type: in vivo, Veronica persica; conditions: application rate 320 g/ha; assessed visually after ca. 3 weeks
From the text: as §3

pre-emergence activity against ZEAMX ([25]; application rate 80 g/ha): 0% | pre-emergence activity against ORYZA [31]: 0%
SMILES: O=C1N(Cc2ccccc2F)CCCC12CCN(Cc1c(F)cccc1F)C2=O (racemic) [I-020]
pre-emergence activity against ABUTH [1]: 90% | pre-emergence activity against ECHCG ([2]; application rate 1280 g/ha): 100% | pre-emergence activity against LOLRI [3]: 100% | pre-emergence activity against MATIN [4]: 90% | pre-emergence activity against SETVI [5]: 100% | pre-emergence activity against STEME [6]: 90% | pre-emergence activity against POAAN [7]: 100% | pre-emergence activity against AMARE [8]: 90% | pre-emergence activity against ALOMY [9]: 90% | pre-emergence activity against KCHSC [10]: 90% | pre-emergence activity against VERPE [11]: 90% | pre-emergence activity against DIGSA ([12]; application rate 320 g/ha): 100% | post-emergence activity against ECHCG [13]: 90% | post-emergence activity against SETVI [14]: 90% | post-emergence activity against DIGSA [15]: 90% | pre-emergence activity against ABUTH [16]: 90% | pre-emergence activity against ALOMY [17]: 100% | pre-emergence activity against DIGSA ([18]; application rate 80 g/ha): 100% | pre-emergence activity against ECHCG [19]: 100% | pre-emergence activity against LOLRI [20]: 100% | pre-emergence activity against MATIN [21]: 80% | pre-emergence activity against SETVI [22]: 100% | pre-emergence activity against VERPE ([23]; application rate 320 g/ha): 90% | pre-emergence activity against VIOTR [24]: 90% | post-emergence activity against ABUTH [26]: 80% | post-emergence activity against VIOTR [27]: 80% | post-emergence activity against ZEAMX [28]: 20% | post-emergence activity against TRZAS [29]: 0% | post-emergence activity against ORYZA [30]: 0%

pre-emergence activity against ZEAMX ([25]; application rate 320 g/ha): 0% | pre-emergence activity against TRZAS [38]: 10%
SMILES: O=C1N(Cc2cccc(F)c2F)CCCC12CCN(Cc1cccc(F)c1F)C2=O (racemic) [I-025]
pre-emergence activity against ECHCG ([2]; application rate 320 g/ha): 100% | pre-emergence activity against LOLRI [3]: 100% | pre-emergence activity against MATIN [4]: 90% | pre-emergence activity against SETVI [5]: 100% | pre-emergence activity against STEME [6]: 90% | pre-emergence activity against POAAN [7]: 100% | pre-emergence activity against AMARE [8]: 90% | pre-emergence activity against KCHSC [10]: 90% | pre-emergence activity against VERPE [11]: 90% | pre-emergence activity against DIGSA ([12]; application rate 1280 g/ha): 100% | post-emergence activity against ABUTH [32]: 90% | post-emergence activity against ECHCG [13]: 90% | post-emergence activity against LOLRI [33]: 90% | post-emergence activity against MATIN [34]: 90% | post-emergence activity against POAAN [35]: 90% | post-emergence activity against VERPE [36]: 90% | post-emergence activity against DIGSA [15]: 90% | pre-emergence activity against ALOMY [17]: 100% | pre-emergence activity against DIGSA ([18]; application rate 320 g/ha): 100% | pre-emergence activity against ECHCG [19]: 100% | pre-emergence activity against LOLRI [20]: 90% | pre-emergence activity against MATIN [21]: 90% | pre-emergence activity against POLCO [37]: 90% | pre-emergence activity against SETVI [22]: 90% | pre-emergence activity against VERPE ([23]; application rate 80 g/ha): 90% | pre-emergence activity against VIOTR [24]: 90% | post-emergence activity against ABUTH [26]: 80% | post-emergence activity against ECHCG [39]: 80% | post-emergence activity against VERPE [40]: 80% | post-emergence activity against ZEAMX [28]: 0% | post-emergence activity against TRZAS [29]: 0% | post-emergence activity against ORYZA [30]: 0%
